Source: patent US20250353891A1 (MEDIMMUNE LIMITED, priority 2022, published 2025)
Like-named read-outs stand apart in the source and are kept apart here. Starred links: 1 amine or outer side, 2 acyl side, 3 side chain; linkers in the order of their positions; H or OH if unused. Non-standard residues stand in square brackets, D forms with d. Residues, ends and D or L forms follow the SMILES beside them. Groups on a side chain read outwards from the residue. *: point of attachment. C20 diacid = O=C(O)CCCCCCCCCCCCCCCCCCC(=O)*; C18 diacid = O=C(O)CCCCCCCCCCCCCCCCC(=O)*; γGlu = O=C(O)[C@H](CCC(=O)[*:2])N[*:1]; αMeF = C[C@](N)(Cc1ccccc1)C(=O)O; AEEA = NCCOCCOCC(=O)O; Aib = CC(C)(N)C(=O)O

Assays:
[1] = Mouse acute food intake study; assay type: in vivo; conditions: male C57Bl/6 mice, s.c., cumulative food intake at 24 hr vs vehicle
Method: Male C57Bl/6 mice obtained from Jackson Laboratories or Charles River at 8-9 weeks of age and were housed one per cage in BioDaq (Research Diets) cages. Mice were placed on Alpha Dri bedding, standard chow diet (Envigo, 2018) and given water pouches. Mice were allowed to acclimate for 1-2 weeks. Body weight was measured to ensure appropriate acclimation. After acclimation, mice were sham dosed a minimum of 2 times prior to initiation of food intake study. On study day, mice were placed in clean cage bottoms, weighed, and fasted for 6-8 hours. Mice were sorted into groups based on average 24-hour food intake data and body weight. 1-2 hours prior to lights out, mice were dosed subcutaneously with one vehicle or test peptide dissolved in an appropriate vehicle at 5 mL/kg. Mice were left undisturbed and allowed access to food and water for 48 hours. Automated food intake was monitored in the BioDaq system was monitored during this time. Discrete food intake data was exported into MS Excel from which cumulative food intake data was generated and analyzed.

[2] = biological target: human GLP-1 receptor (hGLP-1R) (Homo sapiens, UniProt P43220); test: cAMP production (HTRF) in CHO cells expressing hGLP-1R; assay type: cell-based; parameters: expressed in transfected cells; conditions: for EC50: geometric mean, read-out: hGLP-1R EC50; for % Relative Potency Ratio: % GLP-1R activity relative to GLP-1 / % GlucR activity relative to glucagon
Procedure, shortened: (§1)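 Potency values represent EC50 from 4-parameter logistic curves of HTRF % Delta F signal. Receptor-expressing CHO cells (hGCGR 2×10^5 cells/mL, hGLP-1R 1×10^5 cells/mL) were exposed for 30 min at room temperature before two-step cAMP detection.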

[3] = biological target: human glucagon receptor (hGCGR) (Homo sapiens, UniProt P47871); test: cAMP production (HTRF) in CHO cells expressing hGCGR; assay type: cell-based; parameters: expressed in transfected cells; conditions: geometric mean, read-out: hGluc-R EC50
Procedure, shortened: as §1

Sequence of human glucagon receptor (hGCGR) (P47871 26-477): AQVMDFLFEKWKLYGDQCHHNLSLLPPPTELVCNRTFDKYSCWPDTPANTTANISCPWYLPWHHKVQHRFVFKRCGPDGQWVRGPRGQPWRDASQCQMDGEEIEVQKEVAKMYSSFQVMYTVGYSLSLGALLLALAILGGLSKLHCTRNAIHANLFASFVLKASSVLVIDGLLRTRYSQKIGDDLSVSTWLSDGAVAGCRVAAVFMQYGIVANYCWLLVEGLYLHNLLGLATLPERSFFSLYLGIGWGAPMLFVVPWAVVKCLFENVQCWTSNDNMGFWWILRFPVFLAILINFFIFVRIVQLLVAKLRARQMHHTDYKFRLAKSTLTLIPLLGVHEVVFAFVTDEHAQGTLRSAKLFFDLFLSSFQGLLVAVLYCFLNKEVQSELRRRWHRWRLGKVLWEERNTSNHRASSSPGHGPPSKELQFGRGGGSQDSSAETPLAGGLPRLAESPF
Sequence of human GLP-1 receptor (hGLP-1R) (P43220 24-463): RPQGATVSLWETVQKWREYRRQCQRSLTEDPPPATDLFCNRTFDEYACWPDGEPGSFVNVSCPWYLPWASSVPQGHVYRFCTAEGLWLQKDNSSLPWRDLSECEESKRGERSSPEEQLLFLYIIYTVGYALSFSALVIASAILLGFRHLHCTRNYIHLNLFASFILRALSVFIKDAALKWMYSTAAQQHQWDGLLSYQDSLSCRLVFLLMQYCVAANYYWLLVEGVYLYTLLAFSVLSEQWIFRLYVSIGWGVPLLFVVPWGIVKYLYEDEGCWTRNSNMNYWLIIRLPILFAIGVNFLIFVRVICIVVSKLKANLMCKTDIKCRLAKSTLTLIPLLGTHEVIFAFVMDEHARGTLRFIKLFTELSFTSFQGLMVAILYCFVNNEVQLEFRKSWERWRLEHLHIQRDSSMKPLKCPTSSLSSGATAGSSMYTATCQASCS

Structure (SMILES)	24 hr % Vehicle Food Intake ([1]; dose 30 nmol/kg)	EC50 ([2]; Table 7, peptides modified at position 20, cAMP in CHO hGLP-1R cells)	% Relative Potency Ratio ([2]; Table 7)	EC50 ([3]; Table 7, peptides modified at position 20, cAMP in CHO hGCGR cells)	24 hr % Vehicle Food Intake ([1]; dose 10 nmol/kg)	% Relative Potency Ratio [2]	EC50 ([2]; cAMP, CHO cells, 0.1% BSA)	EC50 ([3]; cAMP, CHO cells, 0.1% BSA)
CC[C@H](C)[C@H](NC(=O)C(C)(C)NC(=O)[C@H](C)NC(=O)[C@@H](NC(=O)[C@](C)(Cc1ccccc1)NC(=O)[C@H](CC(=O)O)NC(=O)[C@H](CCCCNC(=O)COCCOCCNC(=O)COCCOCCNC(=O)CC[C@H](NC(=O)CC[C@H](NC(=O)CCCCCCCCCCCCCCCCCCC(=O)O)C(=O)O)C(=O)O)NC(=O)[C@H](C)NC(=O)[C@H](C)NC(=O)[C@H](CCCNC(=N)N)NC(=O)[C@H](CO)NC(=O)[C@H](CC(=O)O)NC(=O)[C@H](CC(C)C)NC(=O)[C@](C)(Cc1ccccc1)NC(=O)[C@H](CCCCN)NC(=O)[C@H](CO)NC(=O)[C@@H](NC(=O)[C@H](CC(=O)O)NC(=O)[C@H](CO)NC(=O)[C@@H](NC(=O)[C@](C)(Cc1ccccc1)NC(=O)[C@H](CO)NC(=O)CNC(=O)[C@H](Cc1c[nH]cn1)NC(=O)C(C)(C)NC(=O)[C@@H](N)Cc1c[nH]cn1)[C@@H](C)O)C(C)C)[C@@H](C)CC)C(=O)N[C@@H](C)C(=O)N[C@@H](CCC(=O)O)C(=O)N[C@H](C(N)=O)[C@@H](C)O [Peptide 302] (H-H[Aib]HGS[αMeF]TSDVSK[αMeF]LDSRAAK([AEEA-AEEA-γGlu-γGlu-C20 diacid])D[αMeF]IA[Aib]IAET-NH2)	46.4%	0.151 nM	3.5	0.271 nM	–	–	–	–
CC[C@H](C)[C@H](NC(=O)[C@H](Cc1c[nH]c2ccccc12)NC(=O)[C@H](CCCCNC(=O)COCCOCCNC(=O)COCCOCCNC(=O)CC[C@H](NC(=O)CC[C@H](NC(=O)CCCCCCCCCCCCCCCCC(=O)O)C(=O)O)C(=O)O)NC(=O)[C@@H](NC(=O)[C@H](Cc1ccccc1)NC(=O)[C@H](CC(=O)O)NC(=O)[C@H](CCC(N)=O)NC(=O)[C@H](C)NC(=O)[C@H](C)NC(=O)[C@H](CCCNC(=N)N)NC(=O)[C@H](CO)NC(=O)[C@H](CC(=O)O)NC(=O)[C@H](CC(C)C)NC(=O)[C@](C)(Cc1ccccc1)NC(=O)[C@H](CCCCN)NC(=O)[C@H](CO)NC(=O)[C@@H](NC(=O)[C@H](CC(=O)O)NC(=O)[C@H](CO)NC(=O)[C@@H](NC(=O)[C@](C)(Cc1ccccc1)NC(=O)[C@H](CO)NC(=O)CNC(=O)[C@H](Cc1c[nH]cn1)NC(=O)C(C)(C)NC(=O)[C@@H](N)Cc1c[nH]cn1)[C@@H](C)O)C(C)C)C(C)C)C(=O)N[C@@H](C)C(=O)N[C@@H](CC(N)=O)C(=O)N[C@H](C(=O)NCC(=O)NCC(N)=O)[C@@H](C)O [Peptide 364] (H-H[Aib]HGS[αMeF]TSDVSK[αMeF]LDSRAAQDFVK([AEEA-AEEA-γGlu-γGlu-C18 diacid])WIANTGG-NH2)	–	–	–	–	63.7%	2.6	0.0234 nM	0.0304 nM
CC[C@H](C)[C@H](NC(=O)C(C)(C)NC(=O)[C@H](CCCCNC(=O)COCCOCCNC(=O)COCCOCCNC(=O)CC[C@H](NC(=O)CCCCCCCCCCCCCCCCC(=O)O)C(=O)O)NC(=O)[C@@H](NC(=O)[C@H](Cc1ccccc1)NC(=O)[C@H](CC(=O)O)NC(=O)[C@H](CCC(N)=O)NC(=O)[C@H](C)NC(=O)[C@H](C)NC(=O)[C@H](CCCNC(=N)N)NC(=O)[C@H](CO)NC(=O)[C@H](CC(=O)O)NC(=O)[C@H](CC(C)C)NC(=O)[C@](C)(Cc1ccccc1)NC(=O)[C@H](CCCCN)NC(=O)[C@H](CO)NC(=O)[C@@H](NC(=O)[C@H](CC(=O)O)NC(=O)[C@H](CO)NC(=O)[C@@H](NC(=O)[C@](C)(Cc1ccccc1)NC(=O)[C@H](CO)NC(=O)CNC(=O)[C@H](Cc1c[nH]cn1)NC(=O)C(C)(C)NC(=O)[C@@H](N)Cc1c[nH]cn1)[C@@H](C)O)C(C)C)C(C)C)C(=O)N[C@@H](C)C(=O)N[C@@H](CC(N)=O)C(=O)N[C@H](C(N)=O)[C@@H](C)O [Peptide 366] (H-H[Aib]HGS[αMeF]TSDVSK[αMeF]LDSRAAQDFVK([AEEA-AEEA-γGlu-C18 diacid])[Aib]IANT-NH2; N-terminus assumed)	–	–	–	–	83.5%	1.7	0.031 nM	0.0274 nM
CC[C@H](C)[C@H](NC(=O)C(C)(C)NC(=O)[C@H](CCCCNC(=O)COCCOCCNC(=O)COCCOCCNC(=O)CC[C@H](NC(=O)CC[C@H](NC(=O)CCCCCCCCCCCCCCCCCCC(=O)O)C(=O)O)C(=O)O)NC(=O)[C@@H](NC(=O)[C@](C)(Cc1ccccc1)NC(=O)[C@H](CC(=O)O)NC(=O)[C@H](CCC(N)=O)NC(=O)[C@H](C)NC(=O)[C@H](C)NC(=O)[C@H](CCCNC(=N)N)NC(=O)[C@H](CO)NC(=O)[C@H](CC(=O)O)NC(=O)[C@H](CC(C)C)NC(=O)[C@](C)(Cc1ccccc1)NC(=O)[C@H](CCCCN)NC(=O)[C@H](CO)NC(=O)[C@@H](NC(=O)[C@H](CC(=O)O)NC(=O)[C@H](CO)NC(=O)[C@@H](NC(=O)[C@](C)(Cc1ccccc1)NC(=O)[C@H](CO)NC(=O)CNC(=O)[C@H](Cc1c[nH]cn1)NC(=O)C(C)(C)NC(=O)[C@@H](N)Cc1c[nH]cn1)[C@@H](C)O)C(C)C)C(C)C)C(=O)N[C@@H](C)C(=O)N[C@@H](CC(N)=O)C(=O)N[C@H](C(N)=O)[C@@H](C)O [Peptide 375] (H-H[Aib]HGS[αMeF]TSDVSK[αMeF]LDSRAAQD[αMeF]VK([AEEA-AEEA-γGlu-γGlu-C20 diacid])[Aib]IANT-NH2; N-terminus assumed)	–	–	–	–	66.0%	1.4	0.225 nM	0.155 nM
